Laboratory results reported in patent publication US20210299034A1, “A Topical Composition” (Conopco, Inc., d/b/a UNILEVER, priority 2018, published 2021).

System: Human primary melanocytes
Assay: Melanin content assay in α-MSH-stimulated melanocytes
Format: cell-based
Conditions: for Melanin Content (%) Average ± SD: 72 h, untreated control (A) = 100
Protocol: Human primary melanocytes were grown in melanocytes growth medium (MGM) with human melanocyte growth supplement. 500 μL/well (5×10^4 cells/well) of this solution was plated in a 24 wells plate and incubated in an incubator (Thermo Scientific, Model 3111) at 37° C. with 5% CO2 atmosphere.
After 24 h of incubation, cell cultures were treated with the test actives (as outlined in table 1) dissolved in 20% ethanol. After 1 h of actives addition, 10 nM of α-MSH was added. The cells were again incubated for 72 h in an incubator. At the end of this incubation period, the culture medium was replaced with 120 μL/well of melanin content assay reagent (10% Dimethyl sulfoxide in 1 N sodium hydroxide) and incubated for 1 h at 60° C. in a shaker incubator. The supernatant was then transferred to a 384 well plate. The absorbance was measured at 405 nm with a microtiter plate reader (Genios Pro, Tecan M 1000).
In the first set of experiments, human primary melanocytes were subjected to treatments as outlined in table 1 below.

Row | Compound | Melanin Content (%) Average ± SD (4-ER 50 μM, 10 nM α-MSH added 1 h after active, absorbance 405 nm) [%] | Melanin content, comparison in words (10 nM MSH, example 1 vs black tea (example D), example B vs untreated control (example A)) | Melanin Content (%) Average ± SD (MSH 10 nM alone, no test active) [%]
1 | CCc1ccc(O)cc1O [C, 4-ethyl resorcinol] | 68 ± 12.7 |  | 
2 | α-Melanocyte stimulating hormone [B] |  | over and above the control cells | 121 ± 9.7
